Structures can show the parent of a compound that is named as a salt.
Tested on: not given
Test: not given
Settings: not given

melting point | Compound
190 to 215 °C | Cl.N=C(N)c1cccc(C(=O)NCc2ccc(NC(=O)c3ccccc3)cc2)c1
266 °C | Cl.N=C(N)c1cccc(C(=O)NCc2ccc(NS(=O)(=O)c3ccccc3)cc2)c1
115 °C (dec.) | Cl.N=C(N)c1cccc(C(=O)NCc2ccc(Oc3ccncc3)cc2)c1

Biological target: T1, human factor Xa (Homo sapiens, UniProt P00742)
T1 construct: released from the colourless chromogenic substrate by human factor Xa; purchased Roche
T1 sequence (P00742 235-488 limits assumed): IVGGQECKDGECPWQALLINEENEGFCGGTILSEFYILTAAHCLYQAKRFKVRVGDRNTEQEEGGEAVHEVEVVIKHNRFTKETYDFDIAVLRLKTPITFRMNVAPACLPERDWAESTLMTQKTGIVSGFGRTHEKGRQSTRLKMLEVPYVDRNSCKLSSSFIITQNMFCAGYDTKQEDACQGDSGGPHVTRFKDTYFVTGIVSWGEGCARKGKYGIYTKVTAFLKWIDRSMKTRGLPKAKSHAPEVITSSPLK
T1 sequence (P00742 41-179 partner limits assumed): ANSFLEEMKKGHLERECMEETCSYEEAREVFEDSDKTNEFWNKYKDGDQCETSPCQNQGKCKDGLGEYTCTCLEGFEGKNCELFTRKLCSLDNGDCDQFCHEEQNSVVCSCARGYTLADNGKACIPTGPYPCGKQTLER
Test: inhibition of factor Xa, enzyme-kinetic measurement with chromogenic substrate
Assay type: biochemical
Settings: substrate Chromozym X 200 μMol/l, factor Xa (Roche) 0.175 U/ml, pH 8.0, 37° C., photometric at 405 nm
From the text: For example, the compounds • A=2-(5-carbamimidoyl-2-hydroxy-phenyl)-N-[3-methyl-4-(pyrrolidin-1-yl-carbonyl)-phenyl]-acetamide-hydrochloride, • B=2-(2-benzyloxy-5-carbamimidoyl-phenyl)-N-(2-ethoxycarbonyl-ethyl)-N-[3-methyl-4-(pyrrolidin-1-yl-carbonyl)-phenyl]-acetamide-hydrochloride, • C=2-(2-hydroxy-5-carbamimidoyl-phenyl)-N-(2-ethoxycarbonyl-ethyl)-N-[3-methyl-4-(pyrrolidin-1-yl-carbonyl)-phenyl]-acetamide-hydrochloride, • D=2-(2-hydroxy-5-carbamimidoyl-phenyl)-N-(2-carboxy-ethyl)-N-[3-methyl-4-(pyrrolidin-1-yl-carbonyl)-phenyl]-acetamide-hydrochloride • E=2-(5-carbamimidoyl-2-hydroxy-phenyl)-N-[3-methyl-4-(piperidin-1-yl-carbonyl)-phenyl]-acetamide-hydrochloride and • F=2-(5-carbamimidoyl-2-hydroxy-phenyl)-N-[3-methyl-4-(2-aminosulphonyl-phenyl)-phenyl]-acetamide-hydrochloride, were investigated for their effect on the inhibition of factor Xa as follows: • Method: Enzyme-kinetic measurement with chromogenic substrate. The quantity of anpnitroaniline (pNA) released from the colourless chromogenic substrate by human factor Xa is determined photometrically at 405 nm. It is proportional to the activity of the enzyme used. The inhibition of the enzyme activity by the test substance I (in relation to the solvent control) is determined at various concentrations of test substance and from this the IC50 is calculated, as the concentration which inhibits the factor Xa used by 50%. • Material: • Tris(hydroxymethyl)-aminomethane buffer (100 mmol) of and sodium chloride (150 mMol), pH 8.0 • Factor Xa (Roche), spec. activity: 10 U/0.5 ml, final concentration: 0.175 U/ml per reaction mixture • Substrate Chromozym X (Roche), final concentration: 200 μMol/l per reaction mixture • Test substance: final concentration 100, 30, 10, 3, 1, 0.3, 0.1, 0.03, 0.01, 0.003, 0.001 μMol/l
Procedure: 10 μl of a 23.5-times concentrated starting solution of the test substance or solvent (control), 175 μl of tris(hydroxymethyl)-aminomethane buffer and 25 μl of Factor Xa working solution of 1.65 U/ml are incubated for 10 minutes at 37° C. After the addition of 25 μl of Chromozym X working solution ([…]) the sample is measured in a photometer (SpectraMax 250) at 405 nm for 150 seconds at 37° C.
• 1. Determining the maximum increase (deltaOD/minutes) over 3 measuring points. • 2. Determining the % inhibition based on the solvent control. • 3. Plotting a dosage/activity curve (% inhibition vs substance concentration). • 4. Determining the IC50 by interpolating the X value (substance concentration) of the dosage/activity curve at Y=50% inhibition.

IC50 [µM] | Compound
0.03 | Cc1cc(NC(=O)Cc2cc(C(=N)N)ccc2O)ccc1C(=O)N1CCCC1 [A, 2-(5-carbamimidoyl-2-hydroxy-phenyl)-N-[3-methyl-4-(pyrrolidin-1-yl-carbonyl)-phenyl]-acetamide-hydrochloride]
0.085 | Cc1cc(NC(=O)Cc2cc(C(=N)N)ccc2O)ccc1C(=O)N1CCCCC1 [E, 2-(5-carbamimidoyl-2-hydroxy-phenyl)-N-[3-methyl-4-(piperidin-1-yl-carbonyl)-phenyl]-acetamide-hydrochloride]
0.26 | Cc1cc(NC(=O)Cc2cc(C(=N)N)ccc2O)ccc1-c1ccccc1S(N)(=O)=O [F, 2-(5-carbamimidoyl-2-hydroxy-phenyl)-N-[3-methyl-4-(2-aminosulphonyl-phenyl)-phenyl]-acetamide-hydrochloride]

More lines, now with the values behind:

Compound | IC50 [µM]
CCOC(=O)CCN(C(=O)Cc1cc(C(=N)N)ccc1OCc1ccccc1)c1ccc(C(=O)N2CCCC2)c(C)c1 [B, 2-(2-benzyloxy-5-carbamimidoyl-phenyl)-N-(2-ethoxycarbonyl-ethyl)-N-[3-methyl-4-(pyrrolidin-1-yl-carbonyl)-phenyl]-acetamide-hydrochloride] | 0.68
CCOC(=O)CCN(C(=O)Cc1cc(C(=N)N)ccc1O)c1ccc(C(=O)N2CCCC2)c(C)c1 [C, 2-(2-hydroxy-5-carbamimidoyl-phenyl)-N-(2-ethoxycarbonyl-ethyl)-N-[3-methyl-4-(pyrrolidin-1-yl-carbonyl)-phenyl]-acetamide-hydrochloride] | 0.12
Cc1cc(N(CCC(=O)O)C(=O)Cc2cc(C(=N)N)ccc2O)ccc1C(=O)N1CCCC1 [D, 2-(2-hydroxy-5-carbamimidoyl-phenyl)-N-(2-carboxy-ethyl)-N-[3-methyl-4-(pyrrolidin-1-yl-carbonyl)-phenyl]-acetamide-hydrochloride] | 0.85
